# In the Kinase Knowledgebase extract (Sharma et al. 2016):
# Molecular target: ROCK2 (human) (UniProt O75116)
# Experiment: Inhibition of ROCK2 Kinase Activity
# Conditions: concentration not given here
# Sequence of ROCK2 (human) (O75116 whole entry, looked up): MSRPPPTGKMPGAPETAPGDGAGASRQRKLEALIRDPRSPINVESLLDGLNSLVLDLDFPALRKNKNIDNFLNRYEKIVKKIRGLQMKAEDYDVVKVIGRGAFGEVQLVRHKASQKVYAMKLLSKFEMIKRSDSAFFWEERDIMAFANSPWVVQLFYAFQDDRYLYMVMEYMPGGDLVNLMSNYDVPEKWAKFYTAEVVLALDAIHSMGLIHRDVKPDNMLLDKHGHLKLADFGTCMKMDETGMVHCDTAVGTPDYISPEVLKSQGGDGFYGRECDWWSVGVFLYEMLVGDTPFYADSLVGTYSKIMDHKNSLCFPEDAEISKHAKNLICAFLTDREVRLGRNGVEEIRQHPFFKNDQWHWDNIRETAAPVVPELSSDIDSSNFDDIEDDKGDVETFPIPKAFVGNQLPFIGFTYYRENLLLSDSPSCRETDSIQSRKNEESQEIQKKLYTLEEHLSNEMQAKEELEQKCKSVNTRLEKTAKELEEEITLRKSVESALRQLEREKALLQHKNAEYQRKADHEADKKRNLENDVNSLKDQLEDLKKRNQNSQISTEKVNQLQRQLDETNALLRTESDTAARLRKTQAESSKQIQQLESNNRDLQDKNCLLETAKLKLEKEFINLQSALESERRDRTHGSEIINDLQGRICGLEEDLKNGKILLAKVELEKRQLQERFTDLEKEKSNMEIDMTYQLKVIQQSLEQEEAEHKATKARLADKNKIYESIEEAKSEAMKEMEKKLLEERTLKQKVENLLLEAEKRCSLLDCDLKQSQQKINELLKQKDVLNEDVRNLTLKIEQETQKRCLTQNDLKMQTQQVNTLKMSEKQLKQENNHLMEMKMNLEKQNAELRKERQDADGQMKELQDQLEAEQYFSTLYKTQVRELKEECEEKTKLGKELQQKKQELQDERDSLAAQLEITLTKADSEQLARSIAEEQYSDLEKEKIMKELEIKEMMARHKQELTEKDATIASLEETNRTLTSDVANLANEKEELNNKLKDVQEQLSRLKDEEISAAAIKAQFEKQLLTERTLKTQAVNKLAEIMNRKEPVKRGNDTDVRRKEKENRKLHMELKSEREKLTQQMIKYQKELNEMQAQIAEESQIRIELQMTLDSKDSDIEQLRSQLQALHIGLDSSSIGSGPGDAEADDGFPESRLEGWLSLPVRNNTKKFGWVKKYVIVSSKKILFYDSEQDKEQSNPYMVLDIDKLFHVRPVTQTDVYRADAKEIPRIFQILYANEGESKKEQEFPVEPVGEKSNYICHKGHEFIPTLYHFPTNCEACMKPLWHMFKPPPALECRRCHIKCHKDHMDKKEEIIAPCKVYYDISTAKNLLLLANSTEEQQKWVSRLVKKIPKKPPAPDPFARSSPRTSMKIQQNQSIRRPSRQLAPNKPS
row,Structure (SMILES),inhibition [%]
1,c1ccc(-n2cnc3ncncc32)cc1,0
2,Cn1cnc2c(/C=C/c3ccccc3)ncnc21,0
3,Cn1c(-c2ccccc2)nc2c(-c3ccc(F)cc3)ncnc21,0
4,Fc1ccc(Cn2cnc3c(Sc4ccc(F)cc4)ncnc32)cc1,0
5,Cn1c(Br)nc2c(Sc3ccccc3)ncnc21,0
6,Cn1c(C#CCCO)nc2c(Sc3ccccc3)ncnc21,0
7,C(=C\c1ncnc2[nH]cnc12)/c1ccccc1,22
8,Fc1ccc(Cn2cnc3c(Cl)ncnc32)cc1,0
9,Cn1cnc2c(Nc3ccccc3)ncnc21,0
10,Cn1c(-c2ccc(S(C)(=O)=O)cc2)nc2c(Sc3ccc(F)cc3)ncnc21,0
11,CSc1ccc(-c2nc3c(Sc4ccccc4)ncnc3n2C)cc1,0
12,Nc1ncnc2c1ncn2Cc1ccc(F)cc1,0
13,CSc1ccc(-c2nc3c(Sc4ccc(F)cc4)ncnc3n2C)cc1,0
14,Cn1c(-c2ccc([S+](C)[O-])cc2)nc2c(Sc3ccc(F)cc3)ncnc21 (centres undefined),0
